Structures are written as SMILES. Read-outs that look alike come from different tables or passages of the source.

This assay has as its system Swiss Albino or CD-1 male mice. The assay can be described thus: Acetic acid writhing (AAW) analgesic assay. It counts as in vivo, mouse. To be noted: for inhibition in vivo at 30 mg/kg: Mus musculus, 20 min, read-out: AAW % Efficacy. Here is the method: Approaches for evaluating analgesic activity of a compound of the present invention in vivo include a “writhing test.” Briefly, the compound to be tested is administered [by, for example, injection (e.g., subcutaneous injection)] to the mouse. Thereafter, a 0.5% acetic acid solution is administered (i.p.) to a mouse and the numbers of writhing responses are counted for twenty minutes. Antinociception is quantified as reduction in the number of writhes respective to vehicle.
An analgesic assay was used to determine whether a given compound can reduce and/or prevent visceral pain in mice. The assay utilizes Swiss Albino or CD-1 male mice (5-10 mice per group), each mouse being approximately 0.015-0.030 kg on the study day. Mice were treated according to standard protocols.
The animal was given an intraperitoneal (IP) injection of an irritant (acetic acid) that induces “writhing” which may include: contractions of the abdomen, twisting and turning of the trunk, arching of the back and the extension of the hindlimbs. Mice are given a single IP injection (0.1 mL/10 g bodyweight) of a 0.5% acetic acid solution. After the injection the animals were returned to their observation enclosure and their behavior was observed. Contractions were counted between 0 and 20 minutes after the injection. The animals were used once. In certain instances, the test articles were administered at multiple doses to determine a dose response curve.
Table 4 provides the results for certain compounds of the present invention that were administered subcutaneously. Table 5 provides the results for certain compounds of the present invention that were administered orally.

`COCCOCCOCCOCCOCCOc1cccc(Nc2ccc3c(c2)[C@]2(C)CCN(CC4CC4)[C@H](C3=O)[C@@H]2C)c1` [Compound 8, (2S,6R,11R)-8-((3-(2,5,8,11,14-pentaoxahexadecan-16-yloxy)phenyl)amino)-3-(cyclopropylmethyl)-6,11-dimethyl-3,4,5,6-tetrahydro-2,6-methanobenzo[d]azocin-1(2H)-one]: the “AAW % Efficacy” value (subcutaneous, 30 mg/kg) came out at 100.0%.

Take `COCCOCCOCCOCCOCCNc1cccc(Nc2ccc3c(c2)[C@]2(C)CCN(CC4CC4)[C@H](C3=O)[C@@H]2C)c1` [Compound 11, (2S,6R,11R)-8-((3-(2,5,8,11,14-pentaoxahexadecan-16-ylamino)phenyl)amino)-3-(cyclopropylmethyl)-6,11-dimethyl-3,4,5,6-tetrahydro-2,6-methanobenzo[d]azocin-1(2H)-one]: the inhibition in vivo at 30 mg/kg (sc, subcutaneous) stood at 100%.

Consider `C[C@H]1[C@H]2C(=O)c3ccc(Nc4ccc(NCCOCCOCCOCCOCCOC(F)(F)F)cc4)cc3[C@]1(C)CCN2CC1CC1` [Compound 20, (2S,6R,11R)-3-(cyclopropylmethyl)-6,11-dimethyl-8-((4-((1,1,1-trifluoro-2,5,8,11,14-pentaoxahexadecan-16-yl)amino)phenyl)amino)-3,4,5,6-tetrahydro-2,6-methanobenzo[d]azocin-1(2H)-one], for which, for the setting “oral”, the inhibition in vivo at 30 mg/kg was 100%.
